{
  "source": "patent US5985636A",
  "about": "“Method and compositions for inhibiting oxidation” (priority 1997, dated 1999)",
  "test_system": "lipid oxidation in 1-stearoyl-2-linoleoyl-sn-glycero-3-phosphocholine large unilamellar vesicles (LUVs)",
  "assay": "Fluorescence assay for antioxidant activity (DPH-PA probe, Fe2+-induced lipid peroxidation in large unilamellar vesicles)",
  "format": "biochemical",
  "conditions": "pH 7.0; for % of inhibition (percent inhibition based upon Fe+2 oxidation): 21 min",
  "description": "The fluorescent assay is described first.\nFluorescence assay for antioxidant activity (general): The need to screen large numbers of compounds or extracts for antioxidant activity requires that a model system (or systems) be employed which reasonably well represents the structural and functional characteristics of the substrate in the food product. The test must also be sensitive, rapid, and inexpensive. […] Large unilamellar vesicles consisting of 1-stearoyl-2-linoleoly-sn-glycero-3-phosphocholine are prepared, which closely resemble the properties of biological membranes, one of the primary sites of peroxidation. A fluorescent probe, 1,6-diphenylhexatriene propionic acid, is incorporated into the membranes such that the polar head group anchors the probe near the aqueous interface, while the hydrophobic portion lies parallel to the fatty acid chains. This probe reacts with the free radicals generated during peroxidation, resulting in a decrease in fluorescence intensity with time. A peroxidation initiator (such as ferrous metal ions or the free radical generator AAPH (Azobis-[2-amidinopropane hydrochloride]) is used to start the reaction, and the kinetics of fluorescence decrease are determined in the presence or absence of the antioxidant to be tested. An assay for a compound at a given concentration presently takes only twenty-one minutes, consumes only a few micrograms of lipid, and can be readily conducted with a simple fluorometer.\nBriefly, the lipid is dissolved in chloroform, and is dried to a thin film using a rotary evaporator. The dried film is resuspended in an aqueous buffer, and is repeatedly extruded through a polycarbonate filter of 100 nm pore size using a Liposofast piposome extruder (Avestin, Inc., Ottawa, Canada). […] The fluorescent probe, diphenylhexatriene-propionic acid (DPH-PA), is incorporated into the vesicles during preparation at a mole ratio of 1:350 (probe:lipid). For the fluorescence experiments, LUVs containing DPH-PA is suspended at a final concentration of 100 μM in 100 mM NaCl, 50 mM tris-HEPES buffer at pH 7.0. The fluorescent probe is excited at 384 nm and emission is monitored at 423 nm. […] AAPH; the progress is monitored by the decrease of the fluorescence intensity of DPH-PA resulting from reaction with free radicals generated over twenty-one minutes. A plot of the decrease of fluorescence intensity as a function of time will be used to determine the kinetics of lipid oxidation.\n^1 --Fuorescent intensity at 21 minutes.\n^2 --Percent Inhibition based upon Fe^+2 oxidation.",
  "data": [
    {"compound": "CC(C)(C)c1cc(O)ccc1O", "note": "[TBHQ]", "values": [
      {"measurement": "% of inhibition (percent inhibition based upon Fe+2 oxidation)", "setting": "2 μM", "value": 90.0, "unit": "%"},
      {"measurement": "Fl. int. at 21 min. (fluorescent intensity at 21 minutes)", "setting": "2 μM", "value": 0.84}
    ]},
    {"compound": "Cc1c(C)c2c(c(C)c1O)CCC(C)(CCCC(C)CCCC(C)CCCC(C)C)O2", "note": "(centres unmarked) [a-Tocopherol]", "values": [
      {"measurement": "% of inhibition (percent inhibition based upon Fe+2 oxidation)", "setting": "2 μM", "value": 0.0, "unit": "%"},
      {"measurement": "Fl. int. at 21 min. (fluorescent intensity at 21 minutes)", "setting": "2 μM", "value": 0.21}
    ]},
    {"compound": "Cc1cc(C(C)(C)C)c(O)c(C(C)(C)C)c1", "note": "[BHT]", "values": [
      {"measurement": "% of inhibition (percent inhibition based upon Fe+2 oxidation)", "setting": "2 μM", "value": 94.3, "unit": "%"},
      {"measurement": "Fl. int. at 21 min. (fluorescent intensity at 21 minutes)", "setting": "2 μM", "value": 0.87}
    ]},
    {"compound": "CCCOC(=O)c1cc(O)c(O)c(O)c1", "note": "[Propyl gallate]", "values": [
      {"measurement": "% of inhibition (percent inhibition based upon Fe+2 oxidation)", "setting": "2 μM", "value": 78.6, "unit": "%"},
      {"measurement": "Fl. int. at 21 min. (fluorescent intensity at 21 minutes)", "setting": "2 μM", "value": 0.76}
    ]},
    {"compound": "COc1ccc(O)c(C(C)(C)C)c1", "note": "[BHA]", "values": [
      {"measurement": "% of inhibition (percent inhibition based upon Fe+2 oxidation)", "setting": "2 μM", "value": 87.1, "unit": "%"},
      {"measurement": "Fl. int. at 21 min. (fluorescent intensity at 21 minutes)", "setting": "2 μM", "value": 0.82}
    ]},
    {"compound": "C[C@@H]1O[C@@H](OC[C@H]2O[C@@H](Oc3cc4c(O)cc(O)cc4[o+]c3-c3ccc(O)c(O)c3)[C@H](O[C@@H]3O[C@H](CO)[C@@H](O)[C@H](O)[C@H]3O)[C@@H](O)[C@@H]2O)[C@H](O)[C@H](O)[C@H]1O", "note": "[Anthocyanin 1, Cyanidin-3-(2\"-O-β-D-glucopyranosyl-6\"-O-α-L-rhamnosyl-β-D-glucopyranoside)]", "values": [
      {"measurement": "% of inhibition (percent inhibition based upon Fe+2 oxidation)", "setting": "2 μM", "value": 38.6, "unit": "%"},
      {"measurement": "Fl. int. at 21 min. (fluorescent intensity at 21 minutes)", "setting": "2 μM", "value": 0.48}
    ]},
    {"compound": "C[C@@H]1O[C@@H](OC[C@H]2O[C@@H](Oc3cc4c(O)cc(O)cc4[o+]c3-c3ccc(O)c(O)c3)[C@H](O)[C@@H](O)[C@@H]2O)[C@H](O)[C@H](O)[C@H]1O", "note": "[Anthocyanin II, Cyanidin-3-(6\"-O-α-L-rhamnopyranosyl-β-D-glucopyranoside)]", "values": [
      {"measurement": "% of inhibition (percent inhibition based upon Fe+2 oxidation)", "setting": "concentration not given", "value": 70.0, "unit": "%"},
      {"measurement": "Fl. int. at 21 min. (fluorescent intensity at 21 minutes)", "setting": "concentration not given", "value": 0.7}
    ]}
  ]
}
